Test results: paper PMC4447944 (The Journal of Biological Chemistry, 2015)

Experiments:
SMYD2 = SMYD2 (Homo sapiens, UniProt Q9NRG4); assay: Thermal denaturation fluorometry (differential scanning fluorometry); format: binding; conditions: 100 μM LLY-507
Protocol: SMYD2 protein unfolding was monitored on a 384-well Roche Lightcycler480 II^TM RT-PCR machine using SYPRO® Orange as a reporter dye (Invitrogen, S6651). Excitation and emission filters were set at 465 and 580 nm, respectively; the temperature was continuously ramped from 25 to 95 °C at a rate of 0.11°C/s. The reaction mixture (6 μl/well) contained 3.9 μM SMYD2 protein and 100 μM compound in 20 mM Tris, pH 8.0, 150 mM NaCl, 10% glycerol, 2 mM tris(2-carboxyethyl)phosphine (TCEP), and 1% DMSO buffer. Triplicates were run along with protein without compound as a negative control.

hAKT1 = target: T1, hAKT1 (Homo sapiens, UniProt P31749); assay: KINOMEscan; format: binding
T1 construct: purchased DiscoverX

hABL1(pT315I) = target: T2, hABL1(pT315I) (Homo sapiens, UniProt P00519, T315I); assay: KINOMEscan; format: binding
T2 construct: purchased DiscoverX (KINOMEscan platform)

hADRα1A = target: T3, hADRα1A (Homo sapiens, UniProt P35348); assay: Calcium Mobilization Antagonist (Eurofins-CEREP); conditions: read-out: % Effect, Inhibition
T3 sequence (P35348 1-466): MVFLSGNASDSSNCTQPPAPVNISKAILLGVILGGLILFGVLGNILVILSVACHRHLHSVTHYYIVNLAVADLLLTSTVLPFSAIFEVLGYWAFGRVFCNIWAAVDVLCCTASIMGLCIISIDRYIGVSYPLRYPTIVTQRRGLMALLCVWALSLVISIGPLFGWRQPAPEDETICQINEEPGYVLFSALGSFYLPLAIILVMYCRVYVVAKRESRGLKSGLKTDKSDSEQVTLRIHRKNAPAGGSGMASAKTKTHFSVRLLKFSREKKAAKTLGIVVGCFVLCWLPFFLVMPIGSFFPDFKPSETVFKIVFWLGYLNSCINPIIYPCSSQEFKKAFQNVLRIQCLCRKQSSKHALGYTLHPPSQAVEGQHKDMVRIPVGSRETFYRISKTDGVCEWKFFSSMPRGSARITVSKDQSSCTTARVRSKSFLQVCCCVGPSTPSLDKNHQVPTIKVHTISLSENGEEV

hABL1(pM351T) = target: T4, hABL1(pM351T) (Homo sapiens, UniProt P00519, M351T); assay: KINOMEscan; format: binding
T4 construct: purchased DiscoverX (KINOMEscan platform)

hLTK = target: T5, hLTK (Homo sapiens, UniProt P29376); assay: KINOMEscan; format: binding
T5 construct: purchased DiscoverX (KINOMEscan platform)
T5 sequence (P29376 17-864): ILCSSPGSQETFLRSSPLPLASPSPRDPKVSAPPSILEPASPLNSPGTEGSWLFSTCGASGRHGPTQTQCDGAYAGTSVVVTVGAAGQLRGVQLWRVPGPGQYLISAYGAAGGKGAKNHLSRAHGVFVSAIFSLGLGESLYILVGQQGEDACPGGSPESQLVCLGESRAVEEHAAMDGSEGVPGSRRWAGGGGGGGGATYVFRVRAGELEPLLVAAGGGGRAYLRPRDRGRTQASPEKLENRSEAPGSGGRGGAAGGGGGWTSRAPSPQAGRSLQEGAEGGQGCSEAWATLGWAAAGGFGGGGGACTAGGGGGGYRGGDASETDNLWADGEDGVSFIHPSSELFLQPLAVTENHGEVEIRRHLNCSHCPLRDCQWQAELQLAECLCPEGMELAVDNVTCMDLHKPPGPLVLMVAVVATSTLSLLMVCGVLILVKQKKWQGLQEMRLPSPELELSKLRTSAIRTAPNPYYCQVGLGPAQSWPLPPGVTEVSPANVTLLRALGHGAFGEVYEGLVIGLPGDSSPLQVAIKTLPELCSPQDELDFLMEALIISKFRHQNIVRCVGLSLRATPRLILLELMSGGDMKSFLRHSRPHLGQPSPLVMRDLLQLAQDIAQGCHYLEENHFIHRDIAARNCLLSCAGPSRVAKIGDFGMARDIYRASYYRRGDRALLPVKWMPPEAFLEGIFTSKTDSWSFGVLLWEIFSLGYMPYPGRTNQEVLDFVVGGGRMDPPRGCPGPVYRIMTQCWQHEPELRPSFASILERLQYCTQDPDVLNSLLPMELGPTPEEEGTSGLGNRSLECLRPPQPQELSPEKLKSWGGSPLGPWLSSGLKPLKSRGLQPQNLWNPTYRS

hLKB1 = target: T6, hLKB1 (Homo sapiens, UniProt Q15831); assay: KINOMEscan; format: binding
T6 construct: purchased DiscoverX (KINOMEscan platform)

hSIK = target: T7, hSIK (Homo sapiens, UniProt P57059); assay: KINOMEscan; format: binding
T7 construct: purchased DiscoverX (KINOMEscan platform)

hWNK3 = target: T8, hWNK3 (Homo sapiens, UniProt Q9BYP7); assay: KINOMEscan; format: binding
T8 construct: purchased DiscoverX

hTAK1 = target: T9, hTAK1 (Homo sapiens, UniProt O43318); assay: KINOMEscan; format: binding
T9 construct: purchased DiscoverX

hSRPK2 = target: T10, hSRPK2 (Homo sapiens, UniProt P78362); assay: KINOMEscan; format: binding
T10 construct: purchased DiscoverX (KINOMEscan platform)
T10 sequence (P78362 whole entry): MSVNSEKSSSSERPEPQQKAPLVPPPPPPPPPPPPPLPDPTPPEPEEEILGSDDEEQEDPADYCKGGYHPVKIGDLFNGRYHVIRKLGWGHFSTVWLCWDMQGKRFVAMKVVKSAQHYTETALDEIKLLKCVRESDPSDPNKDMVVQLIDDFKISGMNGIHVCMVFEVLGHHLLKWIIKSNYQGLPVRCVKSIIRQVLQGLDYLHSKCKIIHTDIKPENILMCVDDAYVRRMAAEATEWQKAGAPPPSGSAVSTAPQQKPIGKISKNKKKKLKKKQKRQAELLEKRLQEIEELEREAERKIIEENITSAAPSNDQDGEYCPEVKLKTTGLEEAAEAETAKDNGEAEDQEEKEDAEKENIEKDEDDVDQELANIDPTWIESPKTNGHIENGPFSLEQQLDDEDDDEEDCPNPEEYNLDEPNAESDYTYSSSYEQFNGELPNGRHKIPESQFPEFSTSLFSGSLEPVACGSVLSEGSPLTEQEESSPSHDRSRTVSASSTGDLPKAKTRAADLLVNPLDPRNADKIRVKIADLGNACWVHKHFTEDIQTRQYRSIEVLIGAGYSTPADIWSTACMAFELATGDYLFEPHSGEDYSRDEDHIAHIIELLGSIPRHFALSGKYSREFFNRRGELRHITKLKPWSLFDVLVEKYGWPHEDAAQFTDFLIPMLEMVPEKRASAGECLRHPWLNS

hDMPK = target: T11, hDMPK (Homo sapiens, UniProt Q09013); assay: KINOMEscan; format: binding
T11 construct: purchased DiscoverX (KINOMEscan platform)

hTBK1 = target: T12, hTBK1 (Homo sapiens, UniProt Q9UHD2); assay: KINOMEscan; format: binding
T12 construct: purchased DiscoverX

hLYN = target: T13, hLYN (Homo sapiens, UniProt P07948); assay: KINOMEscan; format: binding
T13 construct: purchased DiscoverX (KINOMEscan platform)
T13 sequence (P07948 whole entry): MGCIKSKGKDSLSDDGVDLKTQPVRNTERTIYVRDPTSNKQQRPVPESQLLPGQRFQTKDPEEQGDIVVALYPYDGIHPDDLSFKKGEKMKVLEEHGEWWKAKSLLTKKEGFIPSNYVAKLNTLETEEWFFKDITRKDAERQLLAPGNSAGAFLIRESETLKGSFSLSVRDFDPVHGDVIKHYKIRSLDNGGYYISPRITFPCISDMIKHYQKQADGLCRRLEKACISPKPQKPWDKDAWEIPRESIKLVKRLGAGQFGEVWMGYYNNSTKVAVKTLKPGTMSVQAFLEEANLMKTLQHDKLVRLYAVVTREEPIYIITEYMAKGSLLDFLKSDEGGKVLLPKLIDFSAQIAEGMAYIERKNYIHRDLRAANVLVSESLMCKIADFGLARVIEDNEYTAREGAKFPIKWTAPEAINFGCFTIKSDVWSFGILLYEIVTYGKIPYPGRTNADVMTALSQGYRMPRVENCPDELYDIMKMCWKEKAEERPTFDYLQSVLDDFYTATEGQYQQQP

hD1 = hD1 (Homo sapiens, UniProt P21728); assay: β-arrestin Antagonist (Eurofins-CEREP); conditions: read-out: % Effect, Inhibition
Sequence of hD1 (P21728 whole entry): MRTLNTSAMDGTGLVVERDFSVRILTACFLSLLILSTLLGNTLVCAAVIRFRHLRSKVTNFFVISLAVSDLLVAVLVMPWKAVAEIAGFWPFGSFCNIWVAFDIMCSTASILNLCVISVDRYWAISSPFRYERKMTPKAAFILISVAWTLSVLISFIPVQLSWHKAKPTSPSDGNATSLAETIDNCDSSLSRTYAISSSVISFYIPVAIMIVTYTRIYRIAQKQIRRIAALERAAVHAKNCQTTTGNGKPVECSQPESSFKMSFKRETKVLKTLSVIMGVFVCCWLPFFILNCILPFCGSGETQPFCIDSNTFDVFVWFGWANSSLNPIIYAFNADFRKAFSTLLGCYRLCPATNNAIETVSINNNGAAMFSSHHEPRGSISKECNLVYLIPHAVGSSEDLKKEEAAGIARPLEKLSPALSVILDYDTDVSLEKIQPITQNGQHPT

h5HT2B = h5HT2B (Homo sapiens, UniProt P41595); assay: Calcium Mobilization Antagonist (Eurofins-CEREP); conditions: read-out: % Effect, Inhibition
Sequence of h5HT2B (P41595 whole entry): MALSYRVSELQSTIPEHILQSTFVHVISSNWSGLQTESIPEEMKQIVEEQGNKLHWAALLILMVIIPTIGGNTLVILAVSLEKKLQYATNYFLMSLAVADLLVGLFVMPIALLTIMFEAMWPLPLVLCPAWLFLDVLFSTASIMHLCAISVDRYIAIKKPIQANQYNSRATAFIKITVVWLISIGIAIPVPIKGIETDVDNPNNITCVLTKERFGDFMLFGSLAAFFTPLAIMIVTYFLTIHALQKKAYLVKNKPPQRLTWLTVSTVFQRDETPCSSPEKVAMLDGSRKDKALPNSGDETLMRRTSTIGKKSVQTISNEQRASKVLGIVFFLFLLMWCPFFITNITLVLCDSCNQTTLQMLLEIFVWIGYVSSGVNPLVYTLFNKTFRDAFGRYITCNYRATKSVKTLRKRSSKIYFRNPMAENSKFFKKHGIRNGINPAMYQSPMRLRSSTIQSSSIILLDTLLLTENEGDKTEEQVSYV

hHCK = target: T14, hHCK (Homo sapiens, UniProt P08631); assay: KINOMEscan; format: binding
T14 construct: purchased DiscoverX

hM2 = target: T15, hM2 (Homo sapiens, UniProt P08172); assay: β-arrestin Antagonist (Eurofins-CEREP); conditions: read-out: % Effect, Inhibition
T15 sequence (P08172 1-466): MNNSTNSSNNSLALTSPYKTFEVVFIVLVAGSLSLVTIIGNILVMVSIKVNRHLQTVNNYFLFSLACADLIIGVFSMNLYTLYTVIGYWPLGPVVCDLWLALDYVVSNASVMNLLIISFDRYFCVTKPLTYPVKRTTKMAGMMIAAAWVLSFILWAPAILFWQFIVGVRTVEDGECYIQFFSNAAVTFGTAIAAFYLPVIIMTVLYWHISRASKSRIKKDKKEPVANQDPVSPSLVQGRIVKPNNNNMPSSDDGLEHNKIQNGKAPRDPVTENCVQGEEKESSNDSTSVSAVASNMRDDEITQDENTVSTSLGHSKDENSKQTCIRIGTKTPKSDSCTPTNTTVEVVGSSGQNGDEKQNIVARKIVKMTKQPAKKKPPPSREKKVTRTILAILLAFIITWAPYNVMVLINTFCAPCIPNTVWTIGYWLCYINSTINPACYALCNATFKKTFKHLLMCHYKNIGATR

[1] = system: 454 kinases, 35 G protein-coupled receptors, 14 nuclear hormone receptors, and three cytochrome P450 enzymes; assay: Off-target profiling summary; conditions: 35 GPCRs
Protocol: The compound was further profiled against 454 kinases, […], 14 nuclear hormone receptors, and three cytochrome P450 enzyme targets (supplemental Tables 2–4). The only inhibitory activity that was noted (at 98% at 10 μM) targeted the calcium mobilization antagonist mode of hADRα1A, a member of the G protein-coupled receptor family involved in epinephrine signaling.

hQSK = target: T16, hQSK (Homo sapiens, UniProt Q9Y2K2); assay: KINOMEscan; format: binding
T16 construct: purchased DiscoverX (KINOMEscan platform)

hDAPK2 = target: T17, hDAPK2 (Homo sapiens, UniProt Q9UIK4); assay: KINOMEscan; format: binding
T17 construct: purchased DiscoverX (KINOMEscan platform)
T17 sequence (Q9UIK4 whole entry): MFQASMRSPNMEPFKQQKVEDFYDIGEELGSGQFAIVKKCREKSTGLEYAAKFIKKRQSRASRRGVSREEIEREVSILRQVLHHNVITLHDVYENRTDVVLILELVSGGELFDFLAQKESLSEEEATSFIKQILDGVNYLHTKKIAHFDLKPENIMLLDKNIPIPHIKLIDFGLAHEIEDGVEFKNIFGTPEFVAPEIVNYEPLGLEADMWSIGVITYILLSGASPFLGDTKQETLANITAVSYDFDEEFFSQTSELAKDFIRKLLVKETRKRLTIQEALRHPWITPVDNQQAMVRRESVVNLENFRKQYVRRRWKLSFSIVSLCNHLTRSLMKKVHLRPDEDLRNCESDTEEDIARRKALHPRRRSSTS

hHIPK3 = target: T18, hHIPK3 (Homo sapiens, UniProt Q9H422); assay: KINOMEscan; format: binding
T18 construct: purchased DiscoverX
T18 sequence (Q9H422 whole entry): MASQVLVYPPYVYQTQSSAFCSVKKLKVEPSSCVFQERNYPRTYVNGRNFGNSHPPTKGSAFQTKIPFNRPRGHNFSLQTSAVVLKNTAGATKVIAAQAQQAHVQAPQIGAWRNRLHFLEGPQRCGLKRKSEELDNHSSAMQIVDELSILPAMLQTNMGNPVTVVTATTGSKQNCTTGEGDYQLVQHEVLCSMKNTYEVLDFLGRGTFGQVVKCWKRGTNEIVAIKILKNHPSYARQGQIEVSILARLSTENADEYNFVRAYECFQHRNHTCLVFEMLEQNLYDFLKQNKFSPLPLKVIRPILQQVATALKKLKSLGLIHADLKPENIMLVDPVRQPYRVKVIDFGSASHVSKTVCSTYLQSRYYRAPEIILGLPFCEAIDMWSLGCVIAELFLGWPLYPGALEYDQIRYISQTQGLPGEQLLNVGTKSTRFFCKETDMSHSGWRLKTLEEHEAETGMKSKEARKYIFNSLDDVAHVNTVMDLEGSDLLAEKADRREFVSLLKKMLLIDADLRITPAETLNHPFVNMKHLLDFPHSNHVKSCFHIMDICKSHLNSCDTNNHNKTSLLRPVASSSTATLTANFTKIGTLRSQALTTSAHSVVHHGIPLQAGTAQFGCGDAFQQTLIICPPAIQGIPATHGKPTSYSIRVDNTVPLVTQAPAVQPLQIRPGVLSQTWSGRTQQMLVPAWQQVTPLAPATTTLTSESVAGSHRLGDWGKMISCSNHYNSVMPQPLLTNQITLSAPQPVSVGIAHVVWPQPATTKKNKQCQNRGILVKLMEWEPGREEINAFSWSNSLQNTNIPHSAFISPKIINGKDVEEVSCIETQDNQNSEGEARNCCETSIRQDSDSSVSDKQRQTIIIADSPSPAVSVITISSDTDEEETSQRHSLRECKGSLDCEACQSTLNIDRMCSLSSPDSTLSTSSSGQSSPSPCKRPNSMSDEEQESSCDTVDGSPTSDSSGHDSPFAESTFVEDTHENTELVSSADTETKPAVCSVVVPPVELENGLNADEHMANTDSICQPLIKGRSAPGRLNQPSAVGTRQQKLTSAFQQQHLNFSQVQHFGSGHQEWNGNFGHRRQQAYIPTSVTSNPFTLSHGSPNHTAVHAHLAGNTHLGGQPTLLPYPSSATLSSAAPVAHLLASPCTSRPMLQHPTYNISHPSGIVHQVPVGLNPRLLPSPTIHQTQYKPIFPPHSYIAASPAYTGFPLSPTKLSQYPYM

hRIOK3 = target: T19, hRIOK3 (Homo sapiens, UniProt O14730); assay: KINOMEscan; format: binding
T19 construct: purchased DiscoverX (KINOMEscan platform)

hTRPM6 = target: T20, hTRPM6 (Homo sapiens, UniProt Q9BX84); assay: KINOMEscan; format: binding
T20 construct: purchased DiscoverX

Sequence of SMYD2 (Q9NRG4 whole entry): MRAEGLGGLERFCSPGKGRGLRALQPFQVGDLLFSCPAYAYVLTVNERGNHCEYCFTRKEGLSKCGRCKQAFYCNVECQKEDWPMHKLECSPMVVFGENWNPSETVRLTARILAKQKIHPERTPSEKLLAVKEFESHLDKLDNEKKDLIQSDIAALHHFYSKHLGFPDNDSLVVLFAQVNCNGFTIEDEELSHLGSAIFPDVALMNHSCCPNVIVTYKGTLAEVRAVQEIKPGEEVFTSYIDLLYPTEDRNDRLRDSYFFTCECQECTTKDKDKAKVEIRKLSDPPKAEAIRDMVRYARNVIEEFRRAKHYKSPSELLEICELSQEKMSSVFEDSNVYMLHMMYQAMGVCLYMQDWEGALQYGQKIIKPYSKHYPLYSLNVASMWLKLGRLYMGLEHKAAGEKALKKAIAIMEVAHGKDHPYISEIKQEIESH

**Q.** Which “increase in thermal stability of SMYD2” value (SMYD2) does the source give for `Cc1cn(CCN2CCN(c3ccccc3-c3cc(C#N)cc(C(=O)NCCCN4CCCC4)c3)CC2)c2ccccc12` [LLY-507, 3-cyano-5-{2-[4-[2-(3-methylindol-1-yl)ethyl]piperazin-1-yl]-phenyl}-N-[(3-pyrrolidin-1-yl)propyl]benzamide] here?
**A.** Its value is 5 °C.

**Q.** And the “Tm of SMYD2 in presence of compound” value (SMYD2; SMYD2 alone Tm = 49 °C)?
**A.** Its value is 54 °C.

**Q.** What about the IC50 (hAKT1) of the same compound?
**A.** Its IC50 is > 20 µM.

**Q.** What about the IC50 (hABL1(pT315I)) of the same compound?
**A.** The IC50 was > 20 µM.

**Q.** What about the inhibition at 10 µM (hADRα1A) of the same compound?
**A.** Its inhibition at 10 µM is 98%.

**Q.** And the IC50 (hABL1(pM351T))?
**A.** The IC50 was > 20 µM.

**Q.** And the IC50 (hLTK)?
**A.** The IC50 was > 20 µM.

**Q.** And the IC50 (hLKB1)?
**A.** The IC50 was > 20 µM.

**Q.** What about the IC50 (hSIK) of the same compound?
**A.** The IC50 was > 20 µM.

**Q.** What about the IC50 (hWNK3) of the same compound?
**A.** The IC50 was > 20 µM.

**Q.** What about the IC50 (hTAK1) of the same compound?
**A.** Its IC50 is > 20 µM.

**Q.** And the IC50 (hSRPK2)?
**A.** Its IC50 is > 20 µM.

**Q.** What about the IC50 (hDMPK) of the same compound?
**A.** Its IC50 is > 20 µM.

**Q.** And the IC50 (hTBK1)?
**A.** The IC50 was > 20 µM.

**Q.** What about the IC50 (hLYN) of the same compound?
**A.** Its IC50 is > 20 µM.

**Q.** What about the inhibition at 10 µM (hD1) of the same compound?
**A.** The inhibition at 10 µM was 43.4%.

**Q.** What about the inhibition at 10 µM (h5HT2B) of the same compound?
**A.** The inhibition at 10 µM was 6.8%.

**Q.** What about the IC50 (hHCK) of the same compound?
**A.** The IC50 was > 20 µM.

**Q.** What about the inhibition at 10 µM (hM2) of the same compound?
**A.** Its inhibition at 10 µM is 36.3%.

**Q.** What about the “inactive against off-target panels” value [1] of the same compound?
**A.** The value was > 20 µM.

**Q.** And the IC50 (hQSK)?
**A.** The IC50 was > 20 µM.

**Q.** And the IC50 (hDAPK2)?
**A.** The IC50 was > 20 µM.

**Q.** What about the IC50 (hHIPK3) of the same compound?
**A.** Its IC50 is > 20 µM.

**Q.** What about the IC50 (hRIOK3) of the same compound?
**A.** Its IC50 is > 20 µM.

**Q.** And the IC50 (hTRPM6)?
**A.** The IC50 was > 20 µM.
